Results taken from US20060189539A1, “Novel GnRH analogues with antitumour effects and pharmaceutical compositions thereof” (priority 1994, published 2006).

Columns and labels:
MDA-MB-231 xenograft = assay: In vivo antitumour effect on MDA-MB-231 xenograft; parameters: species or system immunosuppressed CBA/Ca mice
Protocol: The immunosuppression of mice was carried out by using the method of Steel et al. (1978).
CBA/Ca female mice of about 6 weeks old were thymectomized and then, after one week, they were irradiated with 60Co (whole body irradiation; the lethal dose is 9.5 Gray). Within 24 hours 3 to 5×10^5 myelocytes were injected to the animals. Beneath the skin of the immunosuppressed mice 2×10^7 tumour cells or, in the case of later passages, about 2 mm^3 of tumour cells or in the case of later, additional passages about 2 mm^3 of tumour pieces were implanted. […] The treatment with steroid hormone was stopped by at least one week before beginning the investigation.
Recent investigations have begun on 28 animals bearing MCF-7 xenograft .and on 28 animals bearing MDA-MB-231 xenograft. On animals bearing MCF-7 tumour the treatment was commenced in the 5th week following xeno-transplantation; the tumour volume was 205 to 225 mm^3. On animals bearing MDA-MB-231 tumour, the treatment was started in the 4th week after xeno-transplantation with a tumour volume of 140 to 150 mm^3. […] The control groups were daily treated with physiological saline s.c. (Each treated group consisted of 7 animals.)
A more recent study was started on 28 animals bearing. MDA-MB-231 xenograft. The treatment was begun in the 4th or 5th week following xenotransplantation. The tumour volume was 0.165 to 0.194 cm3. […] (For treatment of the control group, see the preceding Examples). Each group consisted of 7 animals.

[1] = test system: LH release from rat hypophysis; settings: superfusion; cited from earlier work
[2] = test system: MCF-7 and MDA-MB-231 cell lines; settings: 30 μM
Protocol: The procedure of treatment was as follows. After trypsinization the cells, 400,000 cells of MCF-7, MDA-MB-231 human mammary carcinoma, PC3 human prostate carcinoma or Ishikawa human endometrium tumour each were passed into Petri dishes of 10 cm in diameter. Starting from the day following transfer, the cells were treated with the substances to be tested in solution prepared with the nutrient medium during the exponential growth phase. The cultures were treated with 1 to 50 μM (calculated for the total volume of the culture) of MI-1544 GnRH antagonist, MI-1892 chicken GnRH antagonist or SJ-1004 GnRH antagonist analogues as well as synthetic lamprey GnRH-III hormone in every two days and the cell count was determined on the 7th day.

[3] = test system: PC3 prostate tumour cell culture; assay: Inhibition of colony formation (dose-survival), Example 48; assay type: cell-based, human; settings: 50 μM
Excerpt: (§1) MCF-7 human mammary carcinoma cell line was stabilized in 1973 by Soule et al. from the pleural fluid of a patient suffering from mammary carcinoma. MDA-MB-231 human mammary carcinoma cell line was isolated and stabilized by Cailleau et al. in 1974 similarly from pleural fluid. Both cell lines grow in monolayer. MCF-7 and MDA-MB-231 human mammary carcinoma cell lines are maintained in plastic flasks (Greiner), in Dulbecco-modified Eagle-MEM (DMEM, GIBCO) liquid nutrient medium containing 10% of fetal calf serum. MCF-7 cell line is estradiol receptor (ER)-positive containing proteins specifically binding GnRH. Thus, it represents, a useful model system for investigating the direct effect of GnRH mediated by the GnRH receptor. Being ER-negative and GnRH receptor-positive, MDA-MB-231 cell line is similarly suitable to study the direct effect of GnRH. PC3 human prostate carcinoma cell line was stabilized in cell culture by Kaighn et al. in 1979. The cells are of epithelial type and form compact colonies in clonogenic assays. The Ishikawa cell line originates from human endometrial adenocarcinoma [M. Nishida et al.: Acta Obstet. Gynecol. Jpn. 37, 1103-1111 (1985)], it is epithelial in its character and contains steroid-as well as GnRH receptors.
(§2) The examination gives accurate information about the cell-damaging effect of the substance tested as a function of varying doses. The treatment was carried out once; the colonies formed from the surviving cells were counted after 8-12 days. […] A part of the arrested cells again entered the cycle, an other part of them might be destroyed (apoptosis). […] In the case of a dose-response investigation, colonies containing less than 15 cells were not counted. 300 cells were put into each Petri dishes of 3.5 cm in diameter. The treatment was once carried out 24 hours after setting, then the colonies formed were counted after 8-12 days. The cells were treated once after 24 hours with 1-50 μM of various GnRH analogues of Examples above or with 1-50 μM of GnRH-III, respectively. The percentages of inhibition obtained on MCF-7, MDA-MB-231, PC3 and Ishikawa cells, respectively, together with the dose of the active agent used are shown in Table VIII.

[4] = test system: Ishikawa endometrium tumour cell culture; assay: as above; assay type: cell-based, human; settings: within the dose range used (1-50 μM)
Excerpt: as §1, §2

ovulation of female rats = settings: prolonged treatment for three cycles, even in high doses; cited from earlier work
[5] = test system: MCF-7 human mammary carcinoma cell line; assay: Inhibition of colony formation (dose-survival), Example 48; assay type: cell-based; settings: 50 μM
MCF-7 cells = assay: Inhibition of cell division (cell count), Example 49; assay type: cell-based, human; settings: MCF-7 (2x); 30 μM
Protocol: After being treated with trypsin, 300,000 each of MCF-7, MDA-MB-231, PC3 or Ishikawa cells, respectively, were passed into Petri dishes of 10 cm in diameter. Starting from the day following the setting, the cells were treated with 1-50 μM of the GnRH analogue in the exponential growth phase. During the experiment lasting for 5 days, the cells were treated in every two days with the peptide hormone dissolved in the nutrient medium, then the cell count was determined on the sixth day.

[6] = 1 × 100 μg daily s.c., week 6 (Table V)

Molecule	Effect on the rate of tumour growth (MDA-MB-231 xenograft; 100 μg daily s.c.)	Tumour volume as control (%) (MDA-MB-231 xenograft; 1 × 100 μg daily s.c., week 4)	Tumour volume as control (%) (MDA-MB-231 xenograft; 1 × 100 μg daily s.c., week 6)	Inhibition % (MDA-MB-231 xenograft; [6]) [%]	Tumour volume as control (%) (MDA-MB-231 xenograft; [6])	LH-releasing effect compared with human GnRH [1]	Inhibition of cell proliferation [2]	% Inhibition of colony formation [3] [%]	Inhibition of colony formation [4]	Inhibition of ovulation (ovulation of female rats)	% Inhibition of colony formation [5] [%]	% Inhibition of cell proliferation (MCF-7 cells) [%]
NCCCC[C@H](NC(=O)[C@H](Cc1c[nH]c2ccccc12)NC(=O)[C@H](CC(=O)O)NC(=O)[C@H](Cc1c[nH]cn1)NC(=O)[C@H](CO)NC(=O)[C@H](Cc1c[nH]c2ccccc12)NC(=O)[C@H](Cc1c[nH]cn1)NC(=O)[C@@H]1CCC(=O)N1)C(=O)N1CCC[C@H]1C(=O)NCC(N)=O [GnRH-III, reference compound]	did not inhibit the rate of tumour growth	85	85	15	85	about thousand times weaker	40-39%	21	did not inhibit	did not inhibit the ovulation		
Ac-D-Trp1,3,D-Cpa2,{Lys[n-poly(N-vinyl pyrrolidone-co-maleic acid)-]}5,[a-Asp(DEA)]6,D-Ala10-GnRH [Compound P-1892]											26	0
